Source: PMC3478282, “Probing the Putative Active Site of YjdL: An Unusual Proton-Coupled Oligopeptide Transporter from E. coli” (PLoS ONE, 2012)
Numbering of substitutions follows the chain as printed. Residues, ends and D or L forms follow the SMILES beside them.

How the values were obtained:
Format in all cases: cell-based, E. coli
YjdL Ala281Phe = molecular target: T1, YjdL Ala281Phe (Escherichia coli, UniProt P39276, A281F); test: β-Ala-Lys(AMCA) uptake and inhibition assay, YjdL Ala281Phe; conditions: for IC50: 0.2 mM β-Ala-Lys(AMCA), 5 min incubation, pH 6.5, ±SEM, n≥3
T1 construct: host or cells: E. coli BL21(DE3)pLysS
T1 sequence (P39276 1-485 A281F): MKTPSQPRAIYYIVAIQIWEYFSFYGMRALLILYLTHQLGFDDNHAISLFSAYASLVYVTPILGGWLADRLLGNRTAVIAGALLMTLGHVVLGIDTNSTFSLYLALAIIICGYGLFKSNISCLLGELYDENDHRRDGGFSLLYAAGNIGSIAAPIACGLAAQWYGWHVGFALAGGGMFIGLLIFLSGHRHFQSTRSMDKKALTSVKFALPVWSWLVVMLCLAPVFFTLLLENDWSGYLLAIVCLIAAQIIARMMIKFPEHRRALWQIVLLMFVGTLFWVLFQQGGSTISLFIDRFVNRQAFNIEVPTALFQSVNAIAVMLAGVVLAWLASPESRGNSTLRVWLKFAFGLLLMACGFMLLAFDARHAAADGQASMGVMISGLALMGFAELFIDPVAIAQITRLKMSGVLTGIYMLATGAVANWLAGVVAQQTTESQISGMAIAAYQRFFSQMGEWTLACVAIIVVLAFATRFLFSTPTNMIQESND
Protocol: (§1) Plasmids were transformed into E. coli BL21(DE3)pLysS cells by heat shock and transformants were selected on agar plates containing 100 µg/mL ampicillin and 34 µg/mL chloramphenicol. Single transformants were inoculated into 2 mL LB-media with antibiotics as above and grown overnight. The cultures were diluted 1∶50 in 5 mL LB-media with antibiotics as above, and at an OD600 of 0.5–0.8 protein expression was induced by the addition of 1 mM isopropyl β-D-1-thiogalactopyranoside (IPTG). The cells were harvested after three hours of induction by centrifugation and resuspended in uptake buffer (50 mM MES pH 6.5, 140 mM NaCl, 5.4 mM KCl, 1.8 mM CaCl2, 0.8 mM MgSO4, and 5 mM glucose).
(§2) Uptake assays were performed as previously described, [20]. In a final assay volume of 100 µL; 0.2 mM β-Ala-Lys-N-7-amino-4-methylcoumarin-3-acetic acid (β-Ala-Lys(AMCA), Biotrend) (10 µL) and various concentrations of ligands (purchased from Bachem or Sigma-Aldrich) or uptake buffer (50 µL) were incubated with bacterial cell suspension (OD600 = 10, 40 µL) at 37°C. After 5 min, the uptake was stopped by addition of 500 µL ice-cold uptake buffer followed by immediate centrifugation and washing twice in ice-cold uptake buffer. Finally the cell pellet was resuspended in 100 µL uptake buffer, and the uptake was quantified by fluorescence measurements (excitation at 340 nm and emission at 460 nm) on a Safire 2 fluorimeter. Non-specific uptake was measured as described above on IPTG-induced E. coli BL21(DE3)pLysS cells harboring the empty pTTQ18 vector. All uptake assay experiments were reproduced at least three times independently and data analyses were performed using GraphPad Prism ver. 5.

YjdL Trp278Phe = molecular target: T2, YjdL Trp278Phe (Escherichia coli, UniProt P39276, W278F); test: β-Ala-Lys(AMCA) uptake and inhibition assay, YjdL Trp278Phe; conditions: 0.2 mM β-Ala-Lys(AMCA), 5 min incubation, pH 6.5; ±SEM, n≥3
T2 construct: host or cells: E. coli BL21(DE3)pLysS
T2 sequence (P39276 1-485 W278F): T1 sequence (P39276 1-485 A281F) with W278F, F281A
Protocol: as §1, §2

YjdL Tyr25Phe = molecular target: T3, YjdL Tyr25Phe (Escherichia coli, UniProt P39276, Y25F); test: β-Ala-Lys(AMCA) uptake and inhibition assay, YjdL Tyr25Phe; conditions: for IC50: 0.2 mM β-Ala-Lys(AMCA), 5 min incubation, pH 6.5, ±SEM, n≥3
T3 construct: expressed in transfected cells; host or cells: E. coli BL21(DE3)pLysS, pTTQ18-yjdL mutant (QuikChange)
T3 sequence (P39276 1-485 Y25F): T1 sequence (P39276 1-485 A281F) with Y25F, F281A
Protocol: as §1, §2

[1] = 0.2 mM, 5 min, pH 6.5 (Figure 3)

Row | Molecule | IC50 (YjdL Ala281Phe) [mM] | IC50 (YjdL Trp278Phe) [mM] | IC50 (YjdL Tyr25Phe) [mM] | increase of β-Ala-Lys(AMCA) uptake compared to WT-YjdL, Ala281Phe (YjdL Ala281Phe; [1]) [fold] | β-Ala-Lys(AMCA) uptake level, YjdL Tyr25Phe (YjdL Tyr25Phe; [1]) [%]
1 | C[C@H](N)C(=O)N[C@@H](C)C(=O)O [Ala-Ala] (H-Ala-Ala-OH) | > 50 | 9.9 ± 1 | > 50 | – | –
2 | C[C@H](N)C(=O)N[C@@H](CCCCN)C(=O)O [Ala-Lys] (H-Ala-Lys-OH) | 0.26 ± 0.02 | 0.38 | 0.4 ± 0.08 | – | –
3 | C[C@H](NC(=O)[C@@H](N)Cc1ccc(O)cc1)C(=O)O [Tyr-Ala] | 33.2 ± 3.4 | 2.8 ± 0.4 | 33.7 ± 3.9 | – | –
4 | β-Ala-Lys-N-7-amino-4-methylcoumarin-3-acetic acid [β-Ala-Lys(AMCA)] | – | – | – | ~3 | 27
